According to US7176204B2, “Substituted carboxylic acid derivatives” (Kyorin Pahrmaceutical Co., Ltd., priority 2000, dated 2007):
pEC50: −log10 of the molar value.

What was measured:
[1] = target: T1, human type PPARα ligand-binding domain fused with DNA-binding domain of yeast transcription factor (Homo sapiens, UniProt Q07869); assay: Test of transactivation on PPAR (luciferase reporter, CHO cells), PPARα; format: cell-based; conditions: luciferase activity after 24 hours, corrected with Renilla internal standard
T1 construct: expressed in transfected cells; host or cells: CHO cells
T1 sequence (Q07869 239-466 limits assumed): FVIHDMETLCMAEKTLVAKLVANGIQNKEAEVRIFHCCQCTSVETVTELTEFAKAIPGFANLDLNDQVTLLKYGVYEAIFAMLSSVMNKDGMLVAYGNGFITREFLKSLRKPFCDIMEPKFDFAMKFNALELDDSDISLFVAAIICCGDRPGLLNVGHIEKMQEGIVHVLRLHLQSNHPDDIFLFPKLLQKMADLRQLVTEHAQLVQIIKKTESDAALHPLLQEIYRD
From the text: (§1) <Test of Transactivation on Peroxisome Proliferator-Activated Receptor (PPAR)
(§2) To CHO cells cultured in a Dulbecco-modified Eagle's medium containing 10% delipidated fetal calf serum (FCS/DMEM), receptor plasmid and its reporter plasmid (STRATAGENE Corp.) that manifest fused protein of DNA-binding domain being transcription factor of yeast with each ligand-binding domain of human type PPAR (Biochemistry, 1993, 32, 5598), and luciferase plasmid of Renilla (PROMEGA Corp.) for internal standard were cotransfected with lipofectamine in the serum-free state. Thereafter, testing compound was added to the 10% SFCS/DMEM and both luciferase activities were measured after 24 hours, which were corrected with internal standard.

[2] = target: T2, human type PPARγ ligand-binding domain fused with DNA-binding domain of yeast transcription factor (Homo sapiens, UniProt P37231); assay: Test of transactivation on PPAR (luciferase reporter, CHO cells), PPARγ; format: cell-based; conditions: luciferase activity after 24 hours, corrected with Renilla internal standard
T2 construct: expressed in transfected cells; host or cells: CHO cells
T2 sequence (P37231 238-503 limits assumed): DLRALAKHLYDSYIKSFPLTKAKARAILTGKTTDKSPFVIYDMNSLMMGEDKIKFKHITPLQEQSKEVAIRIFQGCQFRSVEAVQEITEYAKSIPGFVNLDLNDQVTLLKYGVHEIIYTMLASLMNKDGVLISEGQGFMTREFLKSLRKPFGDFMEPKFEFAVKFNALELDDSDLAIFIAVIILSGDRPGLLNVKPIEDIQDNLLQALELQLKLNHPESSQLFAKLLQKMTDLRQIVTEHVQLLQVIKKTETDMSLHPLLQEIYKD
From the text: as §1, §2

[3] = target: T3, human type PPARδ ligand-binding domain fused with DNA-binding domain of yeast transcription factor (Homo sapiens, UniProt Q03181); assay: Test of transactivation on PPAR (luciferase reporter, CHO cells), PPARδ; format: cell-based; conditions: luciferase activity after 24 hours, corrected with Renilla internal standard
T3 construct: expressed in transfected cells; host or cells: CHO cells
T3 sequence (Q03181 211-439 limits assumed): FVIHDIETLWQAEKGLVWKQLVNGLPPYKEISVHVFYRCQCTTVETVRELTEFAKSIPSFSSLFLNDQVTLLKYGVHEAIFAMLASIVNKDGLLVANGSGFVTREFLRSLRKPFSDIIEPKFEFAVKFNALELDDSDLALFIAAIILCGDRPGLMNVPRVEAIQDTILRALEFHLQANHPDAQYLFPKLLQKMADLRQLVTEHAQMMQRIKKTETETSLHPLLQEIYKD
From the text: as §1, §2

Structure (SMILES): CCOc1ccc(CC(CC)C(=O)O)cc1CNC(=O)c1ccc(Oc2ccccn2)cc1 (racemic) [Example 26, 2-[[4-Ethoxy-3-[[[4-(2-pyridyloxy)phenyl]carbonylamino]-methyl]phenyl]methyl]butyric acid]
- pEC50 [1]: 7.36
- pEC50 [2]: 6.39
- pEC50 [3]: 6.72

Structure (SMILES): COc1ccc(CCC(=O)O)cc1C(=O)NCc1cccnc1 [Example 16, 3-[3-[N-(3-Pyridylmethyl)carbamoyl]-4-methoxyphenyl]propionic acid]
- melting point: 175 to 176 °C

Structure (SMILES): CCOc1ccc(CC(CC)C(=O)O)cc1CNC(=O)c1ccc(Oc2ccccn2)cc1 (single isomer, unassigned; (-)) [Example 28, (−)-2-[[4-Ethoxy-3-[[[4-(2-pyridyloxy)phenyl]carbonylamino]methyl]phenyl]methyl]butyric acid]
- pEC50 [1]: 6.72
- pEC50 [2]: 6.24
- pEC50 [3]: 5.96

Structure (SMILES): CCC(Cc1ccc(OC)c(C(=O)NCc2ccc(Oc3ccccn3)cc2)c1)C(=O)O (centres unmarked) [Example 18]
- pEC50 [1]: 6.85
- melting point: 138 to 139 °C
- pEC50 [2]: 5.02
- pEC50 [3]: < 4.00

Structure (SMILES): CCC(Cc1ccc(OC)c(CNC(=O)c2ccc(Oc3cccnc3)cc2)c1)C(=O)O (centres unmarked) [Example 23]
- pEC50 [1]: 6.47
- pEC50 [2]: 5.27
- pEC50 [3]: 5.66

Structure (SMILES): CCOc1ccc(CC(CC)C(=O)O)cc1CNC(=O)c1ccc(Oc2ccccn2)cc1 (single isomer, unassigned; (+)) [Example 27, (+)-2-[[4-Ethoxy-3-[[[4-(2-pyridyloxy)phenyl]carbonylamino]-methyl]phenyl]methyl]butyric acid]
- pEC50 [1]: 7.22
- pEC50 [2]: 6.26
- pEC50 [3]: 6.68
